{"source": "patent US9409983B2", "about": "“Methods and compositions involving PBEF inhibitors for lung inflammation conditions and diseases” (The Board of Trustess of the University of Illinois, priority 2009, dated 2016)", "test_system": "C57BL/6 mice", "assay": "rhPBEF challenge in limited ventilator-induced lung injury model (VILIa, 30 ml/kg)", "assay_type": "in vivo, mouse", "procedure": "The first VILI model was designed to produce limited lung injury (VILIa, tidal volume 30 ml/kg), thus allowing assessment of potential synergy with rhPBEF challenge. Male C57BL/6J B6 mice were anesthetized with ketamine/acepromazine, intubated and administered rhPBEF (20 μg/mouse) via an intratracheal (IT) route ˜30 min before ventilator placement (room air, tidal volume 30 ml/kg, 65 breaths/minute, 0 cm H2O PEEP) for 4 hr as previously described (Nonas et al., 2007; Moitra et al., 2007). Groups included a spontaneous breathing group (SB), a spontaneous breathing group challenged with rhPBEF (SB-rhPBEF), a high tidal ventilation group (VILIa), and a high tidal ventilation group with rhPBEF challenge (VILIa-rhPBEF) (n=4-6 all groups).\nBAL fluid recovered as we previously described was used for multiple assays including total BAL protein, and BAL cell differentials (Peng et al., 2004). Tissue albumin content was assessed as previously described (Nonas et al., 2007). Cytokine levels in BAL fluid (IL-1β, IL-6, KC, MIP2, TNF-α) were analyzed by multiplex assays (Bio-Rad, Hercules, Calif., USA). BAL PBEF levels were assayed by a C-terminal ELISA (Phoenix Pharmaceuticals Inc. Belmont, Calif.) and analyzed using the SoftmaxPRO software (Molecular Devices Corp). (See Supplemental Methods).\nWe utilized two experimental models of ventilator-induce lung injury in these experiments. Our first approach (VILIa) utilized a VILI protocol with a tidal volume of 30 ml/kg designed to produce limited lung injury in order to allow assessment of potential synergism between delivered PBEF and mechanical ventilation-induced lung injury. Male C57BL/6J mice (8-12 wk old, 24.7±2.0 g) were weighed, anesthetized with ketamine/acepromazine, intubated using a 20 gauge catheter (Medex, Inc, Carlsbad, Calif.) and administered recombinant PBEF (20 μg/mouse in 1.5 μl water per gram body weight or vehicle equal volumes of water) via an intratracheal (IT) route ˜30 min before being placed on mechanical ventilation as we have previously described (Peng et al., 2004). Mice were then connected to Harvard Apparatus ventilator (Boston, Mass.) at room air, tidal volume of 30 ml/kg, 65 breaths/minute, and positive expiratory pressure (PEEP) 0 cm H2O for 4 hr. Groups of mice were randomly allocated to either the spontaneous breathing group (SB) (n=4), the spontaneous breathing challenged with IT rhPBEF group (SB-rhPBEF) (n=6), the high tidal ventilation group (VILIa) (n=6), or high tidal ventilation with rhPBEF group (VILIa-rhPBEF) (n=6). Normal saline (0.2 cc) was given via intraperitoneal injection at the beginning and 2 hours later to all ventilated mice and peak inspiratory pressure was monitored continuously. Temperature was maintained with heat blanket to all mice during experiment.\nMice underwent bronchioalveolar lavage (BAL) of both lungs with Hank's balanced salt solution (1 mL/mouse), and the recovered BAL fluid was used for assays as we have previously described (Peng et al., 2004). Total protein was measured using the Bio-Rad DC Protein Assay (Bio-Rad Laboratories, Hercules, Calif.) (Peng et al., 2004). Protein results were expressed as mg/ml to allow for comparison to other studies. Lavage samples were centrifuged at 500×g on a refrigerated micro centrifuge for 20 min. The supernatant was decanted and aliquot for protein assays. The BAL cells were resuspended in Hank's balanced salt solution and counted using a hemacytometer using standard techniques.\nRe-suspended BAL cells from lung lavage were centrifuged using a Shandon Cytospin-2 at 600 RPM for 15 min, fixed by air-drying, and stained with Diff-Quik dye for differential counts (Peng et al., 2004). Stained cell slides were evaluated and differentially counted for each individual animal (lymphocyte, neutrophil or a macrophage).\nBAL fluid for cytokine measurements was stored at −80° C. until analysis. […]", "note": "Entries after “also recorded” stand apart in the source; their conditions may differ.", "data": [{"substance": "rhPBEF: Recombinant human soluble PBEF/visfatin, a 52 kDa protein containing 465 amino acid residues, purchased from PeproTech", "values": [{"measurement": "BAL IL-1β", "result": "53 ± 4", "unit": "pg/mL"}, {"measurement": "BAL IL-6", "result": "957 ± 103", "unit": "pg/mL"}, {"measurement": "BAL KC", "result": "2310 ± 263", "unit": "pg/mL"}, {"measurement": "BAL MIP-2", "result": "30480 ± 219", "unit": "pg/mL"}, {"measurement": "BAL TNF-α", "result": "985 ± 293", "unit": "pg/mL"}, {"measurement": "BAL cytospin (400×)", "setting": "20 μg rhPBEF", "result": "dramatic influx of neutrophils into the alveolar space"}, {"measurement": "histologic assessment of lung tissue (hematoxylin and eosin)", "setting": "intratracheal rhPBEF 30 min prior to mechanical ventilation for 4 hr", "result": "greater alveolar wall thickening, and neutrophil infiltration into the lung interstitium and alveolar space; also recorded: dramatically augmented"}]}]}
